Reference: patent publication US20080021042A1, “Composition For Controlling Neuropathic Pain” (priority 2004, published 2008)

Assays:
[1] = test system: motor coordination; experiment: motor coordination test (mice rotating rod test, Rota-rod); assay type: in vivo, mouse; settings: 30 mg/kg orally, 16 rpm, cut-off 60 seconds, FIG. 4
Procedure: The effect of the compound of Example 1 on motor coordination was evaluated by means of mice rotating rod test.
Five male BALB/c, 6-7 weeks old mice per group were used. The mouse was trained for 2 or more days so that it could remain on the Rota-rod treadmill (Ugo Basile) in 3 cm in diameter rotating at 16 rpm for at least 60 seconds when it was placed on the rod with the head directed against the direction of rotation. Before the evaluation, three trials were conducted with 10 min or more intervals and the mice which could remain on the rod more than 60 seconds in all three times were selected for the evaluation. The selected mice were divided into test groups.
The time obtained in the third trial was used as the before administration value. Mice were orally received 30 mg/kg of the compound of Example 1 or gabapentin and placed on the rotating rod. The duration of time the mouse remained on the rod was recorded. A cut-off time of 60 seconds was employed and when an animal could remain more than 60 seconds, the time was recorded as 60 seconds.

[2] = test system: neuropathic pain; settings: oral administration, in general; cited from earlier work

## NCC1(CC(=O)O)CCCCC1 [gabapentin]
[1]
  duration of time the mouse remained on the rotating rod: no reduction of the remaining time
[2]
  onset of analgesic action: 1 to 2 h
